# Patent US20260217719A1, “CDK2 INHIBITORS” (BLUEPRINT MEDICINES CORPORATION, priority 2023, published 2026)
# Like-named read-outs stand apart in the source and are kept apart here.
# How the values were obtained:
# CDK1/Cyclin B = target: T1, CDK1/Cyclin B (Homo sapiens, UniProt P06493); test: NanoBRET cellular target engagement assay, CDK1/Cyclin B in HEK-293 cells; format: cell-based; settings: HEK-293 cells transfected with CDK1-NanoLuc and CCNB1; tracer K10 0.5 μM; 2 hrs
# T1 construct: NV2601; host or cells: HEK-293
# Description: (§1) In the assay, HEK-293 cells were cultured to appropriate confluence before being transiently transfected with a mix of CDK2-NanoLuc® Fusion Vector (Promega, NV2781) and CCNE1 expression vector (Promega, NV2641) for CDK2 NanoBRET assays, or CDK1-NanoLuc® Fusion Vector (Promega, NV2701) and CCNB1 expression vector (Promega, NV2601) for CDK1 NanoBRET assay, by using lipid: DNA complexes formed with FuGENE HD transfection agent (Promega, E2311). The transfected cells were cultured overnight in 1% FBS Opti-MEM media to allow the expression to fully occur. Once the expression fully occurred, varying concentrations of the test compounds were added to the cells, before a cell-permeable, fluorescent tracer (tracer K10 from Promega, N2840) was added to achieve final tracer concentration of 0.5 μM. After the addition of Nano-Glo substrate (part of a kit, Promega, N2840) and Extracellular NanoLuc inhibitor (part of a kit, Promega, N2840) 2 hrs after tracer addition, the cellular engagement of the tracer and the competition with testing compounds to the target protein was assessed based on the resulting bioluminescence resonance energy transfer (BRET) signal. BRET ratio was generated by dividing the acceptor emission signal (610 nm) by the donor emission signal (450 nm) for each sample. […] All IC50 curves were calculated using a 4 parameter logistic nonlinear regression model.
# CDK2/Cyclin E1 = target: T2, CDK2/Cyclin E1 (Homo sapiens, UniProt P24941); test: NanoBRET cellular target engagement assay, CDK2/Cyclin E1 in HEK-293 cells; format: cell-based; settings: HEK-293 cells transfected with CDK2-NanoLuc and CCNE1; tracer K10 0.5 μM; 2 hrs
# T2 construct: NV2641; host or cells: HEK-293
# Description: as §1
# CDK1/Cyclin B1, GST-tag = target: T3, CDK1/Cyclin B1, GST-tag (Homo sapiens, UniProt P06493); test: Enzymatic phosphorylation activity assay (Caliper mobility shift), CDK1/Cyclin B1; format: biochemical
# T3 construct: GST; purchased BPS 40454
# Description: (§2) Inhibitory effects of the compounds of the disclosure were measured in biochemical assays that measure the enzymatic phosphorylation activity of CDK enzyme in complex of Cyclin proteins phosphorylates 7.5 micromolar fluorescently labelled peptide substrate, 5-FAM-QSPKKG-CONH2, (FL-Peptide 18, Perkin Elmer, 760362) in the presence of adenosine-5′-triphosphate (ATP) and varying concentrations of the test compound in 100 mM 2-[4-(2-hydroxyethyl)piperazin-1-yl] ethanesulfonic acid (HEPES), pH 7.5, 10 mM MgCl2, 0.015% Brij-35, 1 mM dithiothreitol (DTT), 1.0% dimehylsulfoxide (DMSO). […] Reactions proceeded until between 10% to 20% total peptides were phosphorylated at room temperature (25° C.) and were terminated with 35 mM 2,2′,2″,2″-(ethane-1,2-diyldinitrilo)tetraacetic acid (EDTA). Product was detected using the Caliper mobility shift detection method where the phosphorylated peptide (product) and substrate were electrophoretically separated and measured. Percent activity was plotted against log concentration of compound and points to generate an apparent IC50. The following CDK enzymes in complex with different cyclin proteins were used in these assays: • CDK1/Cyclin B1, GST-tag (BPS, 40454), 1.5 nM used in the assay • CDK2/Cyclin E (Eurofins, 14-475), 1.25 nM used in the assays
# CDK2/Cyclin E = target: T4, CDK2/Cyclin E (Homo sapiens, UniProt P24941); test: Enzymatic phosphorylation activity assay (Caliper mobility shift), CDK2/Cyclin E; format: biochemical
# T4 construct: purchased Eurofins 14-475
# Description: as §2
# [1] = read-out: Enzyme CDK1/cyclin B1 IC50
# [2] = read-out: Enzyme CDK2/cyclin E IC50
# T1 sequence (P06493 whole entry): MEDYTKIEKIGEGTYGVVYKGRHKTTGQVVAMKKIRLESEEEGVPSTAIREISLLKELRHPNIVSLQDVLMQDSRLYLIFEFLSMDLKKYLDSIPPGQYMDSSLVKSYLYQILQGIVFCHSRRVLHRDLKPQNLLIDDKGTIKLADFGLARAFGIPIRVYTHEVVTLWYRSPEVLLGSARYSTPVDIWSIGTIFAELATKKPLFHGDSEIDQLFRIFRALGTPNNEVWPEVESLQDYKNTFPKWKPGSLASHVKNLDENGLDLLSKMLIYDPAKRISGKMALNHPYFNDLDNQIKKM
# T1 sequence (P14635 whole entry partner): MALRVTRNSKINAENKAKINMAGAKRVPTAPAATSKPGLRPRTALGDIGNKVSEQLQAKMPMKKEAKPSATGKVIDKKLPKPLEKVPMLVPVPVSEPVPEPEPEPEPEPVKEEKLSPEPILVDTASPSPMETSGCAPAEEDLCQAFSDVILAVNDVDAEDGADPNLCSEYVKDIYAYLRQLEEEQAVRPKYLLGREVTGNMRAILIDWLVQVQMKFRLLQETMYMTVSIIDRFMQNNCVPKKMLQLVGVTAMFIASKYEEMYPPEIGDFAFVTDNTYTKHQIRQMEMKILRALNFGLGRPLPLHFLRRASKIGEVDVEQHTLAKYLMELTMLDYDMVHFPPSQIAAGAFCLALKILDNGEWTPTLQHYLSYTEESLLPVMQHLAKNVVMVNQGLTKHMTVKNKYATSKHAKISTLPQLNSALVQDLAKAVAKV
# T3 sequence (P06493 whole entry): as the sequence (P06493 whole entry) above
# T3 sequence (P14635 whole entry partner): as the sequence (P14635 whole entry partner) above
Compound,IC50 (CDK1/Cyclin B),IC50 (CDK2/Cyclin E1),other results
"C[C@@H](C1CCOCC1)n1ccc2ncc(Nc3cc(OC(F)F)[nH]n3)nc21 [Example 11, (S)—N-(5-(difluoromethoxy)-1H-pyrazol-3-yl)-5-(1-(tetrahydro-2H-pyran-4-yl)ethyl)-5H-pyrrolo[2,3-b]pyrazin-3-amine]",71.7 nM,1.2 nM,
"C[C@@H](c1cccnc1)n1ccc2ncc(Nc3cc(OC(F)F)[nH]n3)nc21 [Example 5, (S)—N-(5-(difluoromethoxy)-1H-pyrazol-3-yl)-5-(1-(pyridin-3-yl)ethyl)-5H-pyrrolo[2,3-b]pyrazin-3-amine]",,,"IC50 (CDK1/Cyclin B1, GST-tag; [1]): 224 nM; IC50 (CDK2/Cyclin E; [2]): 0.22 nM"
"CC(C)c1cc(Nc2cnc3ccn([C@H](C)c4cccnc4)c3n2)n[nH]1 [Example 4, (R)—N-(5-isopropyl-1H-pyrazol-3-yl)-5-(1-(pyridin-3-yl)ethyl)-5H-pyrrolo[2,3-b]pyrazin-3-amine]",,,"IC50 (CDK1/Cyclin B1, GST-tag; [1]): 54 nM; IC50 (CDK2/Cyclin E; [2]): 0.31 nM"
"FC(F)Oc1cc(Nc2cnc3ccn(CC4CCOCC4)c3n2)n[nH]1 [Example 2, N-(5-(difluoromethoxy)-1H-pyrazol-3-yl)-5-((tetrahydro-2H-pyran-4-yl)methyl)-5H-pyrrolo[2,3-b]pyrazin-3-amine]",,,"IC50 (CDK1/Cyclin B1, GST-tag; [1]): 163 nM; IC50 (CDK2/Cyclin E; [2]): 0.71 nM"
"Cc1cc(Nc2cnc3ccn(Cc4cccnc4)c3n2)n[nH]1 [Example 19, N-(5-methyl-1H-pyrazol-3-yl)-5-(pyridin-3-ylmethyl)-5H-pyrrolo[2,3-b]pyrazin-3-amine]",4450 nM,35.7 nM,
"c1cncc(Cn2ccc3ncc(Nc4cc(C5COC5)[nH]n4)nc32)c1 [Example 16, N-(5-(oxetan-3-yl)-1H-pyrazol-3-yl)-5-(pyridin-3-ylmethyl)-5H-pyrrolo[2,3-b]pyrazin-3-amine]",291 nM,10.9 nM,
"N#Cc1cc(Nc2cnc3ccn(Cc4cccnc4)c3n2)n[nH]1 [Example 20, 3-((5-(pyridin-3-ylmethyl)-5H-pyrrolo[2,3-b]pyrazin-3-yl)amino)-1H-pyrazole-5-carbonitrile]",7560 nM,112 nM,
"O[C@H]1CC[C@H](n2ccc3ncc(Nc4cc(OC(F)F)[nH]n4)nc32)CC1 [Example 12, (1r,4r)-4-(3-((5-(difluoromethoxy)-1H-pyrazol-3-yl)amino)-5H-pyrrolo[2,3-b]pyrazin-5-yl)cyclohexan-1-ol]",347 nM,1.1 nM,
"Cc1cc(Nc2cnc3ccn(Cc4cccnn4)c3n2)n[nH]1 [Example 24, N-(5-methyl-1H-pyrazol-3-yl)-5-(pyridazin-3-ylmethyl)-5H-pyrrolo[2,3-b]pyrazin-3-amine]",3820 nM,105 nM,
"FC(F)Oc1cc(Nc2cnc3ccn(Cc4cccnn4)c3n2)n[nH]1 [Example 13, N-(5-(difluoromethoxy)-1H-pyrazol-3-yl)-5-(pyridazin-3-ylmethyl)-5H-pyrrolo[2,3-b]pyrazin-3-amine]",898 nM,7.4 nM,
"COc1cc(Nc2cnc3ccn(C[C@H]4CCCN(C)C4)c3n2)n[nH]1 [Example 21, (S)—N-(5-methoxy-1H-pyrazol-3-yl)-5-((1-methylpiperidin-3-yl)methyl)-5H-pyrrolo[2,3-b]pyrazin-3-amine]",> 10000 nM,1630 nM,
"CN1CCC[C@H](Cn2ccc3ncc(Nc4cc(OC(F)F)[nH]n4)nc32)C1 [Example 10, (S)—N-(5-(difluoromethoxy)-1H-pyrazol-3-yl)-5-((1-methylpiperidin-3-yl)methyl)-5H-pyrrolo[2,3-b]pyrazin-3-amine]",3210 nM,6 nM,
"FC(F)Oc1cc(Nc2cnc3ccn(CC4CCNCC4)c3n2)n[nH]1 [Example 7, N-(5-(difluoromethoxy)-1H-pyrazol-3-yl)-5-(piperidin-4-ylmethyl)-5H-pyrrolo[2,3-b]pyrazin-3-amine]",> 10000 nM,1130 nM,
"(S)-7-chloro-N-(5-isopropyl-1H-pyrazol-3-yl)-5-(1-(pyridin-3-yl)ethyl)-5H-pyrrolo[2,3-b]pyrazin-3-amine [Example 6]",,,"IC50 (CDK1/Cyclin B1, GST-tag; apparent IC50, 1.5 nM enzyme, 7.5 micromolar FL-Peptide 18, 1.0 mM ATP or ATP Km, 25° C.): 869 nM; IC50 (CDK2/Cyclin E; apparent IC50, 1.25 nM enzyme, 7.5 micromolar FL-Peptide 18, 1.0 mM ATP or ATP Km, 25° C.): 2.23 nM"
"c1cnnc(Cn2ccc3ncc(Nc4cc(C5COC5)[nH]n4)nc32)c1 [Example 23, N-(5-(oxetan-3-yl)-1H-pyrazol-3-yl)-5-(pyridazin-3-ylmethyl)-5H-pyrrolo[2,3-b]pyrazin-3-amine]",1300 nM,110 nM,
"C[C@@H](CO)Cn1ccc2ncc(Nc3cc(OC(F)F)[nH]n3)nc21 [Example 15, (R)-3-(3-((5-(difluoromethoxy)-1H-pyrazol-3-yl)amino)-5H-pyrrolo[2,3-b]pyrazin-5-yl)-2-methylpropan-1-ol]",7460 nM,8.8 nM,
"c1cncc(Cn2ccc3ncc(Nc4cc([C@@H]5CCOC5)[nH]n4)nc32)c1 (single isomer, unassigned) [Example 17, (S)-5-(pyridin-3-ylmethyl)-N-(5-(tetrahydrofuran-3-yl)-1H-pyrazol-3-yl)-5H-pyrrolo[2,3-b]pyrazin-3-amine or (R)-5-(pyridin-3-ylmethyl)-N-(5-(tetrahydrofuran-3-yl)-1H-pyrazol-3-yl)-5H-pyrrolo[2,3-b]pyrazin-3-amine]",624 nM,5.8 nM,
"CN1CCC[C@@H](Cn2ccc3ncc(Nc4cc(OC(F)F)[nH]n4)nc32)C1 [Example 28, (R)—N-(5-(difluoromethoxy)-1H-pyrazol-3-yl)-5-((1-methylpiperidin-3-yl)methyl)-5H-pyrrolo[2,3-b]pyrazin-3-amine]",8310 nM,112 nM,
"FC(F)Oc1cc(Nc2cnc3ccn(C[C@@H]4CCCNC4)c3n2)n[nH]1 [Example 27, (R)—N-(5-(difluoromethoxy)-1H-pyrazol-3-yl)-5-(piperidin-3-ylmethyl)-5H-pyrrolo[2,3-b]pyrazin-3-amine]",3580 nM,16.9 nM,
"OC1(Cn2ccc3ncc(Nc4cc(OC(F)F)[nH]n4)nc32)CCOCC1 [Example 14, 4-((3-((5-(difluoromethoxy)-1H-pyrazol-3-yl)amino)-5H-pyrrolo[2,3-b]pyrazin-5-yl)methyl)tetrahydro-2H-pyran-4-ol]",325 nM,137 nM,
"CN1CCC(Cn2ccc3ncc(Nc4cc(OC(F)F)[nH]n4)nc32)CC1 [Example 8, N-(5-(difluoromethoxy)-1H-pyrazol-3-yl)-5-((1-methylpiperidin-4-yl)methyl)-5H-pyrrolo[2,3-b]pyrazin-3-amine]",> 10000 nM,162 nM,
"FC(F)Oc1cc(Nc2cnc3ccn(C[C@H]4CCCNC4)c3n2)n[nH]1 [Example 9, (S)—N-(5-(difluoromethoxy)-1H-pyrazol-3-yl)-5-(piperidin-3-ylmethyl)-5H-pyrrolo[2,3-b]pyrazin-3-amine]",1730 nM,4.9 nM,
"c1cnnc(Cn2ccc3ncc(Nc4cc([C@@H]5CCOC5)[nH]n4)nc32)c1 (single isomer, unassigned) [Example 25, (S)-5-(pyridazin-3-ylmethyl)-N-(5-(tetrahydrofuran-3-yl)-1H-pyrazol-3-yl)-5H-pyrrolo[2,3-b]pyrazin-3-amine or (R)-5-(pyridazin-3-ylmethyl)-N-(5-(tetrahydrofuran-3-yl)-1H-pyrazol-3-yl)-5H-pyrrolo[2,3-b]pyrazin-3-amine]",2780 nM,128 nM,
"COc1cc(Nc2cnc3ccn(Cc4cccnc4)c3n2)n[nH]1 [Example 18, N-(5-methoxy-1H-pyrazol-3-yl)-5-(pyridin-3-ylmethyl)-5H-pyrrolo[2,3-b]pyrazin-3-amine]",660 nM,10.3 nM,
"COc1cc(Nc2cnc3ccn(Cc4cccnn4)c3n2)n[nH]1 [Example 22, N-(5-methoxy-1H-pyrazol-3-yl)-5-(pyridazin-3-ylmethyl)-5H-pyrrolo[2,3-b]pyrazin-3-amine]",207 nM,6.9 nM,
